Measured values reported in ChEMBL document CHEMBL1152853, “Synthesis and biological evaluation of novel symmetry bis-enediynes” (2009).
The source made the active and inactive calls. No cut-off for these calls is given here.

Columns and labels:
[1] = tested on: K562; assay: Cell cycle arrest in human K562 cells assessed as accumulation in G0/G1 phase at 10 uM after 24 hrs by flow cytometry analysis; format: functional
[2] = tested on: K562; assay: Cell cycle arrest in human K562 cells assessed as accumulation in S phase at 10 uM after 24 hrs by flow cytometry analysis; format: functional
[3] = tested on: K562; assay: Cell cycle arrest in human K562 cells assessed as accumulation in G2/M phase at 10 uM after 24 hrs by flow cytometry analysis; format: functional
[4] = tested on: K562; assay: Cell cycle arrest in human K562 cells assessed as accumulation in Sub-G1 phase at 10 uM after 24 hrs by flow cytometry analysis; format: functional
[5] = tested on: K562; assay: Cell cycle arrest in human K562 cells assessed as accumulation in G0/G1 phase at 20 uM after 24 hrs by flow cytometry analysis; format: functional
[6] = tested on: K562; assay: Cell cycle arrest in human K562 cells assessed as accumulation in S phase at 20 uM after 24 hrs by flow cytometry analysis; format: functional
[7] = tested on: K562; assay: Cell cycle arrest in human K562 cells assessed as accumulation in G2/M phase at 20 uM after 24 hrs by flow cytometry analysis; format: functional
[8] = tested on: K562; assay: Cell cycle arrest in human K562 cells assessed as accumulation in Sub-G1 phase at 20 uM after 24 hrs by flow cytometry analysis; format: functional
[9] = tested on: K562; assay: Cell cycle arrest in human K562 cells assessed as accumulation in G0/G1 phase at 50 uM after 24 hrs by flow cytometry analysis; format: functional
[10] = tested on: K562; assay: Cell cycle arrest in human K562 cells assessed as accumulation in S phase at 50 uM after 24 hrs by flow cytometry analysis; format: functional
[11] = tested on: K562; assay: Cell cycle arrest in human K562 cells assessed as accumulation in G2/M phase at 50 uM after 24 hrs by flow cytometry analysis; format: functional
[12] = tested on: K562; assay: Cell cycle arrest in human K562 cells assessed as accumulation in Sub-G1 phase at 50 uM after 24 hrs by flow cytometry analysis; format: functional
[13] = tested on: K562; assay: Inhibition of G2/M phase related Cyclin A protein expression in human K562 cells at 20 uM by Western blotting analysis; format: functional, cell-based
[14] = tested on: K562; assay: Inhibition of G2/M phase related Cyclin B protein expression in human K562 cells at 20 uM by Western blotting analysis; format: functional, cell-based
[15] = tested on: CCRF-CEM; assay: Cytotoxicity against human CCRF-CEM cells; format: functional
[16] = tested on: HL-60; assay: Cytotoxicity against human HL60 cells; format: functional
[17] = tested on: K562; assay: Cytotoxicity against human K562 cells; format: functional
[18] = tested on: MOLT-4; assay: Cytotoxicity against human MOLT4 cells; format: functional
[19] = Cytotoxicity against human […] cells; format: functional
[20] = tested on: A549; assay: Cytotoxicity against human A549 cells; format: functional
[21] = tested on: EKVX; assay: Cytotoxicity against human EKVX cells; format: functional
[22] = tested on: HOP-62; assay: Cytotoxicity against human HOP62 cells; format: functional
[23] = tested on: NCI-H226; assay: Cytotoxicity against human NCI-H226 cells; format: functional
[24] = tested on: NCI-H23; assay: Cytotoxicity against human NCI-H23 cells; format: functional
[25] = tested on: NCI-H460; assay: Cytotoxicity against human NCI-H460 cells; format: functional
[26] = tested on: NCI-H522; assay: Cytotoxicity against human NCI-H522 cells; format: functional
[27] = tested on: COLO 205; assay: Cytotoxicity against human COLO205 cells; format: functional
[28] = tested on: HCC 2998; assay: Cytotoxicity against human HCC2998 cells; format: functional
[29] = tested on: HCT-116; assay: Cytotoxicity against human HCT116 cells; format: functional
[30] = tested on: HCT-15; assay: Cytotoxicity against human HCT15 cells; format: functional
[31] = tested on: HT-29; assay: Cytotoxicity against human HT-29 cells; format: functional
[32] = tested on: KM12; assay: Cytotoxicity against human KM12 cells; format: functional
[33] = tested on: SW-620; assay: Cytotoxicity against human SW620 cells; format: functional
[34] = tested on: SF-268; assay: Cytotoxicity against human SF268 cells; format: functional
[35] = tested on: SF-295; assay: Cytotoxicity against human SF295 cells; format: functional
[36] = tested on: SF-539; assay: Cytotoxicity against human SF539 cells; format: functional
[37] = tested on: SNB-19; assay: Cytotoxicity against human SNB19 cells; format: functional
[38] = tested on: SNB-75; assay: Cytotoxicity against human SNB75 cells; format: functional
[39] = tested on: U-251; assay: Cytotoxicity against human U251 cells; format: functional
[40] = tested on: LOX IMVI; assay: Cytotoxicity against human LOXIMVI cells; format: functional
[41] = tested on: M14; assay: Cytotoxicity against human M14 cells; format: functional
[42] = tested on: SK-MEL-28; assay: Cytotoxicity against human SK-MEL-28 cells; format: functional
[43] = tested on: SK-MEL-5; assay: Cytotoxicity against human SK-MEL-5 cells; format: functional
[44] = tested on: UACC-257; assay: Cytotoxicity against human UACC257 cells; format: functional
[45] = tested on: UACC-62; assay: Cytotoxicity against human UACC62 cells; format: functional
[46] = tested on: OVCAR-3; assay: Cytotoxicity against human OVCAR-3 cells; format: functional
[47] = tested on: OVCAR-4; assay: Cytotoxicity against human OVCAR4 cells; format: functional
[48] = tested on: OVCAR-5; assay: Cytotoxicity against human OVCAR5 cells; format: functional
[49] = tested on: SK-OV-3; assay: Cytotoxicity against human SKOV3 cells; format: functional
[50] = tested on: 786-0; assay: Cytotoxicity against human 786-0 cells; format: functional
[51] = tested on: ACHN; assay: Cytotoxicity against human ACHN cells; format: functional
[52] = tested on: CAKI-1; assay: Cytotoxicity against human Caki1 cells; format: functional
[53] = tested on: RXF 393; assay: Cytotoxicity against human […] cells; format: functional
[54] = tested on: SN12C; assay: Cytotoxicity against human SN12C cells; format: functional
[55] = tested on: UO-31; assay: Cytotoxicity against human UO31 cells; format: functional
[56] = tested on: PC-3; assay: Cytotoxicity against human PC3 cells; format: functional
[57] = tested on: DU-145; assay: Cytotoxicity against human DU145 cells; format: functional
[58] = tested on: MCF7; assay: Cytotoxicity against human MCF7 cells; format: functional
[59] = tested on: NCI/ADR-RES; assay: Cytotoxicity against human NCI/ADR-RES cells; format: functional
[60] = tested on: MDA-MB-231; assay: Cytotoxicity against human MDA-MB-231 cells; format: functional
[61] = Cytotoxicity against human Hs 578T cells; format: functional
[62] = tested on: MDA-MB-435; assay: Cytotoxicity against human MDA-MB-435 cells; format: functional
[63] = tested on: BT-549; assay: Cytotoxicity against human BT549 cells; format: functional
[64] = tested on: T47D; assay: Cytotoxicity against human T47D cells; format: functional
[65] = read-out: LC50 (the source's name)

Question: For COc1cc2c(c(OC)c1OC)-c1ccc(OC)c(=O)cc1[C@@H](NC(C)=O)CC2 [COLCHICINE], which Activity [1] is on record?
Answer: The Activity was 8.8%.

Question: And the Activity [2]?
Answer: The Activity was 16.6%.

Question: And the Activity [3]?
Answer: Its Activity is 74.6%.

Question: And the Activity [4]?
Answer: Its Activity is 14.59%.

Question: Which results are given for C(#Cc1ccccc1C#Cc1ccccn1)c1ccc(OCCCCCCOc2ccc(C#Cc3ccccc3C#Cc3ccccn3)cc2)cc1?
Answer: Activity [5]: 13.7%; Activity [6]: 59.7%; Activity [7]: 26.6%; Activity [8]: 8.77%; Activity [9]: 23%; Activity [10]: 52.1%; Activity [11]: 24.9%; Activity [12]: 15.54%; Activity [13]: Active; Activity [14]: Active; GI50 [15]: 0.04 µM; CC50 [15, 65]: > 50 µM; GI50 [16]: 0.09 µM; CC50 [16, 65]: 2.7 µM; GI50 [17]: 1.38 µM; CC50 [17, 65]: 22.8 µM; GI50 [18]: 0.37 µM; CC50 [18, 65]: 28 µM; GI50 [19]: 0.62 µM; CC50 [19, 65]: > 50 µM; GI50 [20]: 6.41 µM; CC50 [20, 65]: 43.2 µM; GI50 [21]: 4.33 µM; CC50 [21, 65]: 22.9 µM; GI50 [22]: 6.31 µM; CC50 [22, 65]: 38.8 µM; GI50 [23]: 6.53 µM; CC50 [23, 65]: 30.3 µM; GI50 [24]: 7.97 µM; CC50 [24, 65]: > 50 µM; GI50 [25]: 1.69 µM; CC50 [25, 65]: 18.7 µM; GI50 [26]: 2.87 µM; CC50 [26, 65]: 38.4 µM; GI50 [27]: 8.18 µM; CC50 [27, 65]: 30.9 µM; GI50 [28]: 7.21 µM; CC50 [28, 65]: 26.9 µM; GI50 [29]: 8.69 µM; CC50 [29, 65]: > 50 µM; GI50 [30]: 2.78 µM; CC50 [30, 65]: 22 µM; GI50 [31]: 7.89 µM; CC50 [31, 65]: 27 µM; GI50 [32]: 1.38 µM; CC50 [32, 65]: 20.8 µM; GI50 [33]: 4 µM; CC50 [33, 65]: 22.7 µM; GI50 [34]: 3.63 µM; CC50 [34, 65]: 22.7 µM; GI50 [35]: 1.24 µM; CC50 [35, 65]: 15.8 µM; GI50 [36]: 2.38 µM; CC50 [36, 65]: 21.3 µM; GI50 [37]: 6 µM; CC50 [37, 65]: 26.2 µM; GI50 [38]: 5.13 µM; CC50 [38, 65]: 31.3 µM; GI50 [39]: 5.63 µM; CC50 [39, 65]: 24.1 µM; GI50 [40]: 0.27 µM; CC50 [40, 65]: 18.4 µM; GI50 [41]: 7.47 µM; CC50 [41, 65]: 41.6 µM; GI50 [42]: 5.73 µM; CC50 [42, 65]: 24.3 µM; GI50 [43]: 2.3 µM; CC50 [43, 65]: 20.5 µM; GI50 [44]: 7.11 µM; CC50 [44, 65]: 31.4 µM; GI50 [45]: 0.47 µM; CC50 [45, 65]: 16.4 µM; GI50 [46]: 2.14 µM; CC50 [46, 65]: 21.3 µM; GI50 [47]: 1.91 µM; CC50 [47, 65]: 23.4 µM; GI50 [48]: 3.56 µM; CC50 [48, 65]: 23.4 µM; GI50 [49]: 7.05 µM; CC50 [49, 65]: 42 µM; GI50 [50]: 7.45 µM; CC50 [50, 65]: > 50 µM; GI50 [51]: 1.34 µM; CC50 [51, 65]: 19.6 µM; GI50 [52]: 5.42 µM; CC50 [52, 65]: 23.8 µM; GI50 [53]: 7.65 µM; CC50 [53, 65]: 27.9 µM; GI50 [54]: 6.55 µM; CC50 [54, 65]: 32.7 µM; GI50 [55]: 8.51 µM; CC50 [55, 65]: > 50 µM; GI50 [56]: 4.46 µM; CC50 [56, 65]: 29.2 µM; GI50 [57]: 6.14 µM; CC50 [57, 65]: 24.9 µM; GI50 [58]: 1.91 µM; CC50 [58, 65]: 21.8 µM; GI50 [59]: 2.3 µM; CC50 [59, 65]: > 50 µM; GI50 [60]: 2.67 µM; CC50 [60, 65]: 23.5 µM; GI50 [61]: 5.41 µM; CC50 [61, 65]: 34.6 µM; GI50 [62]: 1.54 µM; CC50 [62, 65]: 21.7 µM; GI50 [63]: 3.45 µM; CC50 [63, 65]: 22.7 µM; GI50 [64]: 2.35 µM; CC50 [64, 65]: > 50 µM; Activity [1]: 15%; Activity [2]: 49.2%; Activity [3]: 35.8%; Activity [4]: 8.57%
